# Residues, ends and D or L forms follow the SMILES beside them.
# Key:
# Sprague Dawley rats [1] = test: Example 37: acute renal injury caused by ischemia-reperfusion; assay type: in vivo, rat
# Procedure: […] Sprague Dawley rats (250-300 g) will be assigned to one of the following groups: (1) sham surgery (no I/R); (2) I/R+saline vehicle; (3) I/R+peptide conjugates; (4) I/R+aromatic-cationic peptides; (5) I/R+SPN10(s); (6) I/R+SPN10(s) and aromatic-cationic peptides. Peptide conjugates (3 mg/kg in saline); aromatic-cationic peptides (an equivalent molar dose of aromatic-cationic peptide based on the concentration of the aromatic-cationic peptide administered in the peptide conjugate treatment group); SPN10(s) (an equivalent molar dose of SPN10 based on the concentration of SPN10 administered in the peptide conjugate treatment group) or SPN10(s) in combination with aromatic-cationic peptides (e.g., an equivalent molar dose of SPN10 based on the concentration of SPN10 administered in the peptide conjugate treatment group and an equivalent molar dose of aromatic-cationic peptide based on the concentration of aromatic-cationic peptide administered in the peptide conjugate treatment group) will be administered 30 minutes before ischemia and immediately before reperfusion. Control animals will be given saline alone according to the same schedule.
# Rats will be anesthetized with a mixture of ketamine (90 mg/kg, i.p.) and xylazine (4 mg/kg, i.p.). […] Renal function will be determined by measuring levels of blood urea nitrogen (BUN) and serum creatinine (BioAssay Systems DIUR-500 and DICT-500).
# Renal Morphologic Examination: Kidneys will be fixed in 10% neutral-buffered formalin and embedded in paraffin wax for sectioning. Three-micron sections will be stained with hematoxylin-eosin (H&E) and periodic acid-Schiff (PAS), and analyzed by light microscopy. Lesions will be scored based on 1) mitosis and necrosis of individual cells, 2) necrosis of all cells in adjacent proximal convoluted tubules with survival of surrounding tubules, 3) necrosis confined to the distal third of the proximal convoluted tubule with a band of necrosis extending across the inner cortex, and 4) necrosis affecting all three segments of the proximal convoluted tubule. […]
# Sprague Dawley rats [2] = test: Renal ischemia/reperfusion, no-reflow zone in the kidney; assay type: in vivo, rat
# normal, mobile mice = test: Skeletal muscle size and mitochondrial function in normal, mobile mice; assay type: in vivo, mouse
# Text: 1. Normal, mobile mice: Normal, mobile mice will be randomly divided into […], A-E, with 8 mice per group. Group A mice will receive an injection of saline vehicle; Group B mice will receive an i.p. injection of the peptide conjugate; Group C mice will receive an i.p. injection of aromatic-cationic peptide; Group D mice will receive an i.p. injection of SPN10; Group E mice will receive an i.p. injection of SPN10+aromatic-cationic peptide.
# Preparation of permeabilized muscle fibers. Permeabilized muscle fibers will be prepared as previously described. Korshunov, et al., FEBS Lett 416:15-18, 1997; Tonkonogi, et al., Pfliigers Arch 446:261-269, 2003. Briefly, the muscle will be trimmed of connective tissue and cut down to fiber bundles (4-8 mg wet wt). […]
# Mitochondrial respiration in permeabilized fibers. Respiration will be measured polarographically in a respiration chamber maintained at 37° C. […] Flux through complex I will be measured using 5 mM pyruvate and 2 mM malate. […] Basal respiration (state 4) will be determined in the presence of 10 µg/mL oligomycin to inhibit ATP synthesis. The respiratory control ratio (RCR) will be calculated by dividing state 3 by state 4 respiration.
structure (smiles),measurement,setting,value
"N=C(N)NCCC[C@H](NC(=O)[C@@H](N)Cc1c[nH]c2ccccc12)C(=O)N[C@@H](Cc1c[nH]c2ccccc12)C(=O)N[C@@H](CCCCN)C(N)=O [SPN10, H-L-Trp-L-Arg-L-Trp-L-Lys-NH2] (H-WRWK-NH2)",BUN and serum creatinine values,"Sprague Dawley rats [1]; 30 minutes before ischemia and immediately before reperfusion, 24 hours of reperfusion",improve BUN and serum creatinine values
same,tubular cell apoptosis after ischemia and reperfusion,"Sprague Dawley rats [1]; rat, in vivo",prevent tubular cell apoptosis
same,tubular cell injury after ischemia and reperfusion,"Sprague Dawley rats [1]; rat, in vivo",prevent tubular cell injury
same,anatomic zone of no-reflow in the kidney,Sprague Dawley rats [2]; 30 minutes before ischemia and before reperfusion,prevent or reduce
same,"one or more of BUN, serum creatinine, and glomerular filtration rate",Sprague Dawley rats [2]; versus untreated control subjects,improve
same,"normal soleus muscle weight, RCR, mitochondrial state 3 and state 4 respiration","normal, mobile mice; mobile mice",no effect
same,normal skeletal muscle size or mitochondrial function,"normal, mobile mice; mouse, in vivo",no effect

# From US20240108740A1, “THERAPEUTIC COMPOSITIONS INCLUDING SPN10 AND USES THEREOF” (Stealth BioTherapeutics Inc., priority 2022, published 2024)
